Test results taken from ChEMBL document CHEMBL1201862, “PubChem BioAssay data set” (2004).
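Where inhibition never reached the appropriate level, the endpoint shown equals the highest concentration tested. Otherwise, values were interpolated linearly from a five-concentration, 48-hour dose response in 96-well plates. Here, GI50 denotes the concentration required for 50% inhibition of growth.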 The source made the active and inactive calls. Cut-off read from the data, not from the text of the source: active = GI50 up to about 1.1 µM and inactive = higher.

Assays:
Assay in all cases: inhibition of tumour cell growth, NCI panel, 48 h
[1] = system: SF-539
[2] = system: MDA-N
[3] = system: SF-295
[4] = system: OVCAR-3
[5] = system: Hs-578T
[6] = system: UACC-62
[7] = system: NCI/ADR-RES
[8] = system: SK-OV-3
[9] = system: SNB-19
[10] = system: UO-31
[11] = system: EKVX
[12] = system: KM12
[13] = system: PC-3
[14] = system: U-251
[15] = system: K562
[16] = system: ACHN
[17] = system: SR
[18] = system: LOX IMVI
[19] = system: HOP-92
[20] = system: SF-268

Row | SMILES | GI50 [1] | GI50 [2] | GI50 [3] | GI50 [4] | GI50 [5] | GI50 [6] | GI50 [7] | GI50 [8] | GI50 [9] | GI50 [10] | GI50 [11] | GI50 [12] | GI50 [13] | GI50 [14] | GI50 [15] | GI50 [16] | GI50 [17] | GI50 [18] | GI50 [19] | GI50 [20]
1 | CC1=NOC(=O)/C1=C/c1ccc2c(c1)OCO2 | 24.3 µM (inactive) | 32.3 µM (inactive) | 26.7 µM (inactive) | 30.2 µM (inactive) | 39.5 µM (inactive) | 21.5 µM (inactive) | 39.5 µM (inactive) | > 100 µM (inactive) | 30.7 µM (inactive) | 21.1 µM (inactive) | 77.3 µM (inactive) | 19.1 µM (inactive) | 21 µM (inactive) | 18.7 µM (inactive) | 55.3 µM (inactive) | 19.1 µM (inactive) | 15.9 µM (inactive) | 19 µM (inactive) | 30.2 µM (inactive) | 34.8 µM (inactive)
2 | Cc1cc(=O)n2nc(CN3CCCCC3)sc2n1 | > 100 µM (inactive) | > 100 µM (inactive) | > 100 µM (inactive) | > 100 µM (inactive) | > 100 µM (inactive) | > 100 µM (inactive) | > 100 µM (inactive) | > 100 µM (inactive) | > 100 µM (inactive) | > 100 µM (inactive) | > 100 µM (inactive) | > 100 µM (inactive) | > 100 µM (inactive) | > 100 µM (inactive) | > 100 µM (inactive) | > 100 µM (inactive) | > 100 µM (inactive) | > 100 µM (inactive) | > 100 µM (inactive) | > 100 µM (inactive)
3 | O=C(O)c1ccccc1C(=O)OCC1CCCN2CCCCC12 (stereo unspecified) | > 100 µM (inactive) | > 100 µM (inactive) | > 100 µM (inactive) | > 100 µM (inactive) | > 100 µM (inactive) | > 100 µM (inactive) | > 100 µM (inactive) | > 100 µM (inactive) | > 100 µM (inactive) | > 100 µM (inactive) | > 100 µM (inactive) | > 100 µM (inactive) | > 100 µM (inactive) | > 100 µM (inactive) | > 100 µM (inactive) | > 100 µM (inactive) | > 100 µM (inactive) | > 100 µM (inactive) | > 100 µM (inactive) | > 100 µM (inactive)
4 | CCOC(=O)CCC(NC(=O)C(N)Cc1ccc(N(CCCl)CCCl)cc1)C(=O)OCC (stereo unspecified) | 0.741 µM (active) | 1.64 µM (inactive) | 2.88 µM (inactive) | 0.667 µM (active) | 2.24 µM (inactive) | 0.34 µM (active) | 1.33 µM (inactive) | 1.3 µM (inactive) | 4.09 µM (inactive) | 0.675 µM (active) | 2.36 µM (inactive) | 1.52 µM (inactive) | 1.34 µM (inactive) | 1.85 µM (inactive) | 0.446 µM (active) | 0.0532 µM (active) | < 0.0182 µM (active) | 0.187 µM (active) | 0.253 µM (active) | 0.592 µM (active)
5 | CCOC(=O)/C=C(/C(=O)OCC)n1cc(C)c(=O)n(Cc2cn(CCCCOC(C)=O)nn2)c1=O | 4.54 µM (inactive) | 35 µM (inactive) | 33.1 µM (inactive) | 14.7 µM (inactive) | 23.2 µM (inactive) | 14.7 µM (inactive) | 23.6 µM (inactive) | > 100 µM (inactive) | 18.8 µM (inactive) | 15.1 µM (inactive) | 10.7 µM (inactive) | 15.5 µM (inactive) | 19.7 µM (inactive) | 18.5 µM (inactive) | 4.14 µM (inactive) | 5.09 µM (inactive) | 4.27 µM (inactive) | 17.7 µM (inactive) | 1.21 µM (inactive) | 17.1 µM (inactive)
6 | Cc1ccc(C(=O)N(C(C)C)C(C)C)cc1/N=N/N(C)C | > 95.7 µM (inactive) | > 100 µM (inactive) | > 86.9 µM (inactive) | 31.3 µM (inactive) | 96.6 µM (inactive) | > 80.5 µM (inactive) | > 100 µM (inactive) | > 100 µM (inactive) | > 100 µM (inactive) | > 61.4 µM (inactive) | > 100 µM (inactive) | 45.2 µM (inactive) | > 100 µM (inactive) | > 80 µM (inactive) | 38.8 µM (inactive) | > 75.5 µM (inactive) | 41.4 µM (inactive) | > 31.6 µM (inactive) | > 64.6 µM (inactive) | > 51.6 µM (inactive)
7 | Oc1ccccc1-c1n[nH]c(-c2ccccc2O)n1 | 4.84 µM (inactive) | > 100 µM (inactive) | 2.52 µM (inactive) | 0.28 µM (active) | > 66.1 µM (inactive) | 7.59 µM (inactive) | 2.45 µM (inactive) | 3.15 µM (inactive) | – | 5.25 µM (inactive) | 2.11 µM (inactive) | 1.49 µM (inactive) | 2.24 µM (inactive) | 3.25 µM (inactive) | 3.64 µM (inactive) | 2.21 µM (inactive) | 0.807 µM (active) | 2.06 µM (inactive) | 1.75 µM (inactive) | 3.05 µM (inactive)
8 | O=c1o[nH]/c(=N/c2ccccc2)n1-c1ccccc1 | > 100 µM (inactive) | > 100 µM (inactive) | > 100 µM (inactive) | > 100 µM (inactive) | > 100 µM (inactive) | > 100 µM (inactive) | > 100 µM (inactive) | > 100 µM (inactive) | > 100 µM (inactive) | > 100 µM (inactive) | > 100 µM (inactive) | > 100 µM (inactive) | > 100 µM (inactive) | > 100 µM (inactive) | > 100 µM (inactive) | > 100 µM (inactive) | > 100 µM (inactive) | > 100 µM (inactive) | > 100 µM (inactive) | –
9 | CC(=O)c1ccc2c(c1)CC1(C2)Cc2cc3c(c(C(=O)O)c2C1)CCC3 (stereo unspecified) | > 100 µM (inactive) | > 100 µM (inactive) | > 100 µM (inactive) | 92.5 µM (inactive) | 33 µM (inactive) | 72.1 µM (inactive) | 80.5 µM (inactive) | > 100 µM (inactive) | – | 40 µM (inactive) | > 100 µM (inactive) | > 100 µM (inactive) | > 100 µM (inactive) | 55.8 µM (inactive) | 72.4 µM (inactive) | 68.1 µM (inactive) | 71.6 µM (inactive) | > 100 µM (inactive) | 22.6 µM (inactive) | > 100 µM (inactive)
10 | C1COC(NC(C2CC2)C2CC2)=N1 [RILMENIDINE] | > 100 µM (inactive) | > 100 µM (inactive) | > 100 µM (inactive) | > 100 µM (inactive) | > 100 µM (inactive) | > 100 µM (inactive) | > 100 µM (inactive) | > 100 µM (inactive) | > 100 µM (inactive) | > 100 µM (inactive) | > 100 µM (inactive) | > 100 µM (inactive) | > 100 µM (inactive) | > 100 µM (inactive) | > 100 µM (inactive) | > 100 µM (inactive) | > 100 µM (inactive) | > 100 µM (inactive) | > 100 µM (inactive) | –
